Measurements published in patent US7097854B2, “Amino alcohol derivatives, process for their production and pharmaceutical preparations and reagents containing these compounds” (MediGene Oncology GmbH, priority 1996, dated 2006).

Experiments:
Calu cells = assay: Transfection with pCMV-CAT, CAT-Elisa, Calu cells; type: cell-based, human; details: relative to DOTAP = 1, pCMV-CAT plasmid
Text: (§1) The testing of DOTAP or the compounds of the invention comprises transfection of the test cells, protein determination by means of the BCA method (Pierce) and carrying out a CAT Elisa and these are described here using DOTAP (Boehringer Mannheim) as an example. After ultrasonication the cationic lipid DOTAP forms unilamellar vesicles (liposomes) in aqueous solution which spontaneously form stable complexes with the DNA (pCMV-CAT). These complexes adhere to the cell surface, fuse with the cell membrane and pCMV-CAT is released into the cytoplasm. The transiently expressed CAT is detected in the cell lysate.
CALU 1, human cancer epithelial cell line from the lung, ECACC 93120818 or another suitable test cell line
(§2) The composition of the test medium used for the respective cell line corresponds with that of the respective culture medium, only the content of FCS is reduced by 50% (only 5% FCS instead of 10%). […]
(§3) The CAT (chloroamphenicol acetyl transferase)-Elisa serves to quantitatively determine the CAT expression in eukaryotic cells after transfection with a plasmid that contains CAT as the reporter gene. […] Anti-CAT-DIG is detected in the third step by a peroxidase-labelled antibody against digoxigenin (Anti-DIG-POD) and visualized in a subsequent substrate reaction. […]
(§4) The microtitre plate is measured at 405 nm and a reference wavelength of 492 nm with an Elisa reader.

HeLa cells = assay: Transfection with pCMV-CAT, CAT-Elisa, HeLa cells; type: cell-based, human; details: relative to DOTAP = 1, pCMV-CAT plasmid
Text: as §1
HeLa, human cancer epithelial cell line from the cervix, ATCC CCL 2
as §2, §3, §4

| SMILES | melting point [°C] | relative transfection efficiency in a CAT-Assay (DOTAP = 1) (Calu cells) | relative transfection efficiency in a CAT-Assay (DOTAP = 1) (HeLa cells) |
| --- | --- | --- | --- |
| CCCCCCCCCCCC(=O)OCCN(CCCNCCCN)CCOC(=O)CCCCCCCCCCC.Cl | 245 to 246 | – | – |
| CCCCCCCCCCCCCC(=O)OCCN(CCOC(=O)CCCCCCCCCCCCC)CC1CCN(CCCN(C)C)CC1 [Example 34, Tetradecanoic acid-2-{(2-tetradecanoyloxy-ethyl)-[1-(3-dimethylamino-propyl)-piperidin-4-yl-methyl]-amino}-ethyl ester] | – | 3.9 | 3.2 |
| CCCCCCCCCCCCCC(=O)OCCN(CCCCNCCCN)CCOC(=O)CCCCCCCCCCCCC [Example 60, Tetradecanoic acid-2-{[4-(3-amino-propylamino)-butyl]-(2-tetradecanoyloxy-ethyl)-amino}-ethyl ester] | – | 3.4 | 3.2 |
